Data published in ChEMBL document CHEMBL4673347, “Discovery of new thieno[2,3-d]pyrimidine and thiazolo[5,4-d]pyrimidine derivatives as orally active phosphoinositide 3-kinase inhibitors” (Bioorg Med Chem, 2021).
Values after ≈ are worked out from the molar mass of the structure shown. Active and inactive are the calls of the source. The rule behind the calls is not given here.

Key:
NCI-H292 = experiment: Antiproliferative activity against human NCI-H292 cells assessed as reduction in cell viability incubated for 72 hrs measured after 4 hrs of MTT addition by MTT assay; assay type: functional, cell-based
[1] = target: Phosphatidylinositol 4,5-bisphosphate 3-kinase catalytic subunit alpha isoform (Homo sapiens, UniProt P42336); experiment: Inhibition of recombinant human full length His-tagged PI3Kalpha expressed in baculovirus expression system using PIP2 as substrate by ADP-Glo reagent based assay
Chain of Phosphatidylinositol 4,5-bisphosphate 3-kinase catalytic subunit alpha isoform (P42336 whole entry, canonical isoform): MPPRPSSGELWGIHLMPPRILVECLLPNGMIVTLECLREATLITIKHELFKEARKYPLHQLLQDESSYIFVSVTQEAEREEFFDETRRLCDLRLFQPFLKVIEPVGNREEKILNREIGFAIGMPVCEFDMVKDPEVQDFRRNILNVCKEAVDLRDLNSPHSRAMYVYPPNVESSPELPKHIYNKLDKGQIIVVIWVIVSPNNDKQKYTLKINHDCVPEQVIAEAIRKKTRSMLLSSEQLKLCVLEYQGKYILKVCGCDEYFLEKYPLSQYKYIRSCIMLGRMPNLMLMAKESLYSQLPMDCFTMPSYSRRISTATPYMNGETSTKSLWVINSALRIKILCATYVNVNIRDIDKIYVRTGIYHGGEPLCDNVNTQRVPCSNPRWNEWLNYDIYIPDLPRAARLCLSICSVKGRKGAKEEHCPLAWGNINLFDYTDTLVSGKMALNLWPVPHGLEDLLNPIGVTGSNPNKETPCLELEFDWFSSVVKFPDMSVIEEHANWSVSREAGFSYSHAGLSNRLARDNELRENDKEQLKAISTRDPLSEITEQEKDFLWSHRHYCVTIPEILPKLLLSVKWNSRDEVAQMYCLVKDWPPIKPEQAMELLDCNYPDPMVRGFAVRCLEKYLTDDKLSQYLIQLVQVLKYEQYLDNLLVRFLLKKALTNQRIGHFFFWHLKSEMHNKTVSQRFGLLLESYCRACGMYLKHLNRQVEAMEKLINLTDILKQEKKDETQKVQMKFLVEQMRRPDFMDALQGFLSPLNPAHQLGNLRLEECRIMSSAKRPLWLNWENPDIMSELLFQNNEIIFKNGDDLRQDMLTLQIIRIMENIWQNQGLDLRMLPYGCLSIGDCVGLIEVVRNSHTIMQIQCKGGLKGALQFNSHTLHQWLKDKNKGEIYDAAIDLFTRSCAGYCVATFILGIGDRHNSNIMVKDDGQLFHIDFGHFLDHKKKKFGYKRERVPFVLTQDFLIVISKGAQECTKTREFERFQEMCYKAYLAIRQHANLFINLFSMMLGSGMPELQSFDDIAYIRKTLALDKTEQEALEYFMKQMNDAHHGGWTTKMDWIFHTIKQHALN

HGC-27 [2] = experiment: Antiproliferative activity against human HGC-27 cells assessed as reduction in cell viability incubated for 72 hrs measured after 4 hrs of MTT addition by MTT assay; assay type: functional, cell-based
HGC-27 [3] = experiment: Inhibition of PI3K signalling in human HGC-27 cells assessed as reduction in S6RP S235/236 phosphorylation incubated for 3 hrs by Western blot analysis; assay type: cell-based; conditions: dose 20-1000 nM
HGC-27 [4] = experiment: Inhibition of PI3K signalling in human HGC-27 cells assessed as reduction in 4E-BP1 phosphorylation incubated for 3 hrs by Western blot analysis; assay type: cell-based; conditions: dose 20-1000 nM
HGC-27 [5] = experiment: Induction of apoptosis in human HGC-27 cells assessed as viable cells at 500 nM incubated for 24 hrs by annexin V-FITC and propidium iodide based staining based flow cytometry analysis (reference value: 83.7 %); assay type: functional; conditions: read-out: Activity
HGC-27 [6] = experiment: Induction of apoptosis in human HGC-27 cells assessed as early apoptotic cells at 500 nM incubated for 24 hrs by annexin V-FITC and propidium iodide based staining based flow cytometry analysis (reference value: 6.22 %); assay type: functional
HGC-27 [7] = experiment: Induction of apoptosis in human HGC-27 cells assessed as late apoptotic cells at 500 nM incubated for 24 hrs by annexin V-FITC and propidium iodide based staining based flow cytometry analysis (reference value: 8.15 %); assay type: functional
[8] = target: Phosphatidylinositol 4,5-bisphosphate 3-kinase catalytic subunit delta isoform (Homo sapiens, UniProt O00329); experiment: Inhibition of recombinant human full length His-tagged PI3Kdelta expressed in baculovirus expression system using PIP2 as substrate by ADP-Glo reagent based assay
Chain of Phosphatidylinositol 4,5-bisphosphate 3-kinase catalytic subunit delta isoform (O00329 whole entry, the tested form may be a part, canonical isoform): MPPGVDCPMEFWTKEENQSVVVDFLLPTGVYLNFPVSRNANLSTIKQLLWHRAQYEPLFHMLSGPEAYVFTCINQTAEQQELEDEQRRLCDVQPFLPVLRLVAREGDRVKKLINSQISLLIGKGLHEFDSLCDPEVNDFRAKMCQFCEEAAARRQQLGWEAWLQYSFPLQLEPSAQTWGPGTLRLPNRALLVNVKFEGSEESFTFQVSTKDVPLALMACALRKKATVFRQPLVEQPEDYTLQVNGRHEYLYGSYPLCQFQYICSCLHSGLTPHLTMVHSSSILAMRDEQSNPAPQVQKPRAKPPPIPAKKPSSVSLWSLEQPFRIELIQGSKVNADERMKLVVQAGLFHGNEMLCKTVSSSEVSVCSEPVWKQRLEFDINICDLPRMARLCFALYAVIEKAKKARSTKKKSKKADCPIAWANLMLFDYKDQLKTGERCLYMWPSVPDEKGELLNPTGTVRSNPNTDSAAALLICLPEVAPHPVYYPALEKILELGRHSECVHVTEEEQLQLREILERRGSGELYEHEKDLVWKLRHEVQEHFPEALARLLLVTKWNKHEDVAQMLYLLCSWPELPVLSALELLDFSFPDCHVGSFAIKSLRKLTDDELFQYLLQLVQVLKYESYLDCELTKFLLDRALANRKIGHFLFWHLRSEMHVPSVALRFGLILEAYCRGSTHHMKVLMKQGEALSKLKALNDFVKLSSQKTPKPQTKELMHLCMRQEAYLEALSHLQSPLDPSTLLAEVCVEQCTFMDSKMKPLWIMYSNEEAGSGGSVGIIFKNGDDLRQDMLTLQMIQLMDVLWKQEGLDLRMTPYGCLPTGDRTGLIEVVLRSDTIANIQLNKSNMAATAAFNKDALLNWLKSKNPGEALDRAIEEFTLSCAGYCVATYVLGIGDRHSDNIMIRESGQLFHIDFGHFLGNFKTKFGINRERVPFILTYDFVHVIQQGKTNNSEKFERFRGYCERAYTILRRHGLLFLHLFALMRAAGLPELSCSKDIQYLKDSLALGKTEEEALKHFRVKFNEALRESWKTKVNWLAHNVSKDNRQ

[9] = target: Phosphatidylinositol 4,5-bisphosphate 3-kinase catalytic subunit gamma isoform (Homo sapiens, UniProt P48736); experiment: Inhibition of recombinant human GST-tagged PI3Kgamma (468 to 1203 residues) expressed in insect expression system using PIP2 as substrate by ADP-Glo reagent based assay
Chain of Phosphatidylinositol 4,5-bisphosphate 3-kinase catalytic subunit gamma isoform (P48736 whole entry, the tested form may be a part, canonical isoform): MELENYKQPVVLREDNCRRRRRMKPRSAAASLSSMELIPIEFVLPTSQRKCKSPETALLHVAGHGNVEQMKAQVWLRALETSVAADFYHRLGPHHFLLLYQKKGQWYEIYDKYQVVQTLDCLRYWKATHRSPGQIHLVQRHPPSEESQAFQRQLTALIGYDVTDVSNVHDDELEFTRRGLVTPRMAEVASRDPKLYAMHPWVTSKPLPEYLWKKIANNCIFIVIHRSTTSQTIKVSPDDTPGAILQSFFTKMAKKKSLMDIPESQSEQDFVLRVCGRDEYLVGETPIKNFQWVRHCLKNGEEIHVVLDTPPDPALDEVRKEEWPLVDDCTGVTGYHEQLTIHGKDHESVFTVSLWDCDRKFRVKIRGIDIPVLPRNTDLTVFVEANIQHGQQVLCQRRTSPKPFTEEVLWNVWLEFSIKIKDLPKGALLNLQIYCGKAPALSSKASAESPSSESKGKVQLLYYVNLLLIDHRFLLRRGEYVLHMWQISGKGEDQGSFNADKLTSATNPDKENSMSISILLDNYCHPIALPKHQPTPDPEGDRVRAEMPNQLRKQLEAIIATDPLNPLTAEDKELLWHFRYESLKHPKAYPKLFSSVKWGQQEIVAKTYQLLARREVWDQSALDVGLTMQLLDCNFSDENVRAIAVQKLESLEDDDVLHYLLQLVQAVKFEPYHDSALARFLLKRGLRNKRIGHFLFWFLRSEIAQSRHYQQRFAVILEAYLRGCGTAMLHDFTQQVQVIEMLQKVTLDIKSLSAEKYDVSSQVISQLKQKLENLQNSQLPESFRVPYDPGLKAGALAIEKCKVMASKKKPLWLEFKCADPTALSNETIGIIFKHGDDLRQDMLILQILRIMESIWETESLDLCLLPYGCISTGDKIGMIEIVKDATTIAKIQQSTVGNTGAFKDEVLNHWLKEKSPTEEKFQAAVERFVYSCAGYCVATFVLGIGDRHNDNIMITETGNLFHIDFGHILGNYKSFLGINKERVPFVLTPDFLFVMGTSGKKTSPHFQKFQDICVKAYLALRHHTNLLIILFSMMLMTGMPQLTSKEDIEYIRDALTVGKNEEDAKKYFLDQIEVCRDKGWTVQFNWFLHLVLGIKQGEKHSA

AGS = experiment: Antiproliferative activity against human AGS cells assessed as reduction in cell viability incubated for 72 hrs measured after 4 hrs of MTT addition by MTT assay; assay type: functional, cell-based
MGC-803 = experiment: Antiproliferative activity against human MGC-803 cells assessed as reduction in cell viability incubated for 72 hrs measured after 4 hrs of MTT addition by MTT assay; assay type: functional, cell-based
SGC-7901 = experiment: Antiproliferative activity against human SGC-7901 cells assessed as reduction in cell viability incubated for 72 hrs measured after 4 hrs of MTT addition by MTT assay; assay type: functional, cell-based
MKN-45 = experiment: Antiproliferative activity against human MKN-45 cells assessed as reduction in cell viability incubated for 72 hrs measured after 4 hrs of MTT addition by MTT assay; assay type: functional, cell-based
SNU-16 = experiment: Antiproliferative activity against human SNU-16 cells assessed as reduction in cell viability incubated for 72 hrs measured after 4 hrs of MTT addition by MTT assay; assay type: functional, cell-based
NCI-H460 = experiment: Antiproliferative activity against human NCI-H460 cells assessed as reduction in cell viability incubated for 72 hrs measured after 4 hrs of MTT addition by MTT assay; assay type: functional, cell-based
A549 = experiment: Antiproliferative activity against human A549 cells assessed as reduction in cell viability incubated for 72 hrs measured after 4 hrs of MTT addition by MTT assay; assay type: functional, cell-based
NCI-H23 = experiment: Antiproliferative activity against human NCI-H23 cells assessed as reduction in cell viability incubated for 72 hrs measured after 4 hrs of MTT addition by MTT assay; assay type: functional, cell-based
NCI-H358 = experiment: Antiproliferative activity against human NCI-H358 cells assessed as reduction in cell viability incubated for 72 hrs measured after 4 hrs of MTT addition by MTT assay; assay type: functional, cell-based
NCI-H1437 = experiment: Antiproliferative activity against human NCI-H1437 cells assessed as reduction in cell viability incubated for 72 hrs measured after 4 hrs of MTT addition by MTT assay; assay type: functional, cell-based
MDA-MB-231 = experiment: Antiproliferative activity against human MDA-MB-231 cells assessed as reduction in cell viability incubated for 72 hrs measured after 4 hrs of MTT addition by MTT assay; assay type: functional, cell-based
MG-63 = experiment: Antiproliferative activity against human MG-63 cells assessed as reduction in cell viability incubated for 72 hrs measured after 4 hrs of MTT addition by MTT assay; assay type: functional, cell-based
[10] = Kinetic solubility of compound in PBS buffer at pH 7.4; assay type: physicochemical; conditions: read-out: Kinetic_solubility
[11] = Apparent permeability across apical to basolateral side in human Caco-2 cells; assay type: ADME, cell-based
[12] = Apparent permeability across basolateral to apical side in human Caco-2 cells; assay type: ADME, cell-based
[13] = Protein binding in plasma (unknown origin) assessed as unbound fraction; assay type: ADME, cell-free
[14] = Half life in ICR mouse at 4 mg/kg, iv measured upto 24 hrs by LC-MS/MS analysis; assay type: ADME, organism-based; conditions: in vivo
[15] = Clearance in ICR mouse at 4 mg/kg, iv measured upto 24 hrs by LC-MS/MS analysis; assay type: ADME, organism-based; conditions: in vivo
[16] = AUC (0 to t) in ICR mouse at 4 mg/kg, iv measured upto 24 hrs by LC-MS/MS analysis; assay type: ADME, organism-based; design: route intravenous, dose 4 mg/kg, time <=24; conditions: in vivo
[17] = AUC (0 to infinity) in ICR mouse at 4 mg/kg, iv measured upto 24 hrs by LC-MS/MS analysis; assay type: ADME, organism-based; design: route intravenous, dose 4 mg/kg, time <=24; conditions: in vivo
[18] = Half life in ICR mouse at 40 mg/kg, po measured upto 24 hrs by LC-MS/MS analysis; assay type: ADME, organism-based; conditions: in vivo
[19] = Cmax in ICR mouse at 40 mg/kg, po measured upto 24 hrs by LC-MS/MS analysis; assay type: ADME, organism-based; design: route oral, dose 40 mg/kg, time <=24; conditions: in vivo
[20] = AUC (0 to t) in ICR mouse at 40 mg/kg, po measured upto 24 hrs by LC-MS/MS analysis; assay type: ADME, organism-based; design: route oral, dose 40 mg/kg, time <=24; conditions: in vivo
[21] = AUC (0 to infinity) in ICR mouse at 40 mg/kg, po measured upto 24 hrs by LC-MS/MS analysis; assay type: ADME, organism-based; design: route oral, dose 40 mg/kg, time <=24; conditions: in vivo
[22] = Oral bioavailability in ICR mouse at 40 mg/kg measured upto 24 hrs by LC-MS/MS analysis; assay type: ADME, organism-based; conditions: in vivo
HGC-27 [23] = experiment: Antitumor activity against human HGC-27 cells xenografted in BALB/c mouse assessed as tumor growth inhibition at 40 mg/kg, po administered for 25 days and measured on day 25 relative to control; assay type: functional; conditions: HGC-27, po, 600 h, time 25 day, read-out: TGI
HGC-27 [24] = experiment: Antitumor activity against human HGC-27 cells xenografted in BALB/c mouse assessed as reduction in Ki67 expression at 20 to 40 mg/kg, po administered for 25 days and measured on day 25 by […] immunohistochemistry; assay type: functional, organism-based; conditions: dose 20-40 mg/kg, time 25.0 day
Mus musculus = experiment: In vivo inhibition of PI3Kalpha in BALB/c mouse assessed as increase in plasma insulin level at 40 mg/kg, po measured after 30 mins by ELISA; assay type: functional, organism-based

IC50 (NCI-H292) | IC50 [1] | IC50 [8] | IC50 [9] | IC50 (AGS) | IC50 (MGC-803) | IC50 (SGC-7901) | IC50 (MKN-45) | IC50 (SNU-16) | IC50 (NCI-H460) | IC50 (A549) | IC50 (NCI-H23) | IC50 (NCI-H358) | IC50 (NCI-H1437) | SMILES | IC50 (HGC-27 [2]) | inhibition (HGC-27 [3]) | inhibition (HGC-27 [4]) | viability at 0.5 µM (HGC-27 [5]) | Activity (HGC-27 [6]) | Activity (HGC-27 [7]) | also measured
320 nM | 1.7 nM | 1 nM | 2 nM | 720 nM | 670 nM | 640 nM | 1100 nM | 3100 nM | 490 nM | 620 nM | 580 nM | 1000 nM | 1100 nM | COc1ncc(-c2nc3c(N4CCOCC4)ncnc3s2)cc1NS(=O)(=O)c1ccc(F)cc1F | 40 nM | Dose-dependent effect | Dose-dependent effect | 77.7% | 17.6% | 4.53% | IC50 (MDA-MB-231): 860 nM; IC50 (MG-63): 360 nM; solubility kinetic [10]: 6.31 µM (≈ 3.28 µg/mL); Papp A→B [11]: 21.4 ×10⁻⁶ cm/s; Papp B→A [12]: 43.4 ×10⁻⁶ cm/s; Fu [13]: 0.3%; half-life [14]: 2.25 h; clearance [15]: 2.65 mL/min/kg; AUC(0-t) at 24 h [16]: 23200 ng·h/mL; AUC(0-inf) [17]: 25300 ng·h/mL; half-life [18]: 6.3 h; Cmax [19]: 9610 ng/mL; AUC(0-t) at 24 h [20]: 126000 ng·h/mL; AUC(0-inf) [21]: 142000 ng·h/mL; bioavailability [22]: 54.5%; inhibition in vivo at 40 mg/kg (HGC-27 [23]): 88.7%; inhibition (HGC-27 [24]): Active; inhibition (Mus musculus): Active
2700 nM | 7.2 nM | 3.9 nM | 12 nM | 3900 nM | 6800 nM | 5200 nM | 2600 nM | 5800 nM | 4000 nM | 7800 nM | 4400 nM | 5200 nM | 2900 nM | COc1ncc(-c2cc3c(N4CCOCC4)ncnc3s2)cc1NS(=O)(=O)c1ccc(F)cc1F | 390 nM | Dose-dependent effect | Dose-dependent effect | 75.1% | 15.8% | 8.87% | IC50 (MDA-MB-231): 8200 nM; IC50 (MG-63): 7000 nM; solubility kinetic [10]: 10.3 µM (≈ 5.35 µg/mL); Papp A→B [11]: 21.1 ×10⁻⁶ cm/s; Papp B→A [12]: 37.6 ×10⁻⁶ cm/s; Fu [13]: 0.3%; half-life [14]: 1.36 h; clearance [15]: 4.6 mL/min/kg; AUC(0-t) at 24 h [16]: 14300 ng·h/mL; AUC(0-inf) [17]: 14600 ng·h/mL; half-life [18]: 13.7 h; Cmax [19]: 22500 ng/mL; AUC(0-t) at 24 h [20]: 143000 ng·h/mL; AUC(0-inf) [21]: 187000 ng·h/mL; bioavailability [22]: 99.5%; inhibition in vivo at 40 mg/kg (HGC-27 [23]): 58.2%; inhibition (HGC-27 [24]): Active; inhibition (Mus musculus): Active
